Results published in patent US20030055023A1, “Formulations containing etomidate and a sulfoalkyl ether cyclodextrin” (priority 2001, published 2003).
Values after ≈ are worked out from the molar mass of the structure shown.

Assay: Solubility of etomidate
Format: physicochemical
Details: aqueous buffer
Source text: . […] . No. 4,289,783 to Mesens).
By “therapeutic agent/SAE-CD complex” is generally meant a clathrate or inclusion complex of a sulfoalkyl ether cyclodextrin derivative of the formula (1) and a therapeutic agent. By “complexed” is meant “being part of a clathrate or inclusion complex with”, i.e., a complexed therapeutic agent is part of a clathrate or inclusion complex with a sulfoalkyl ether cyclodextrin derivative. By “major portion” is meant at least about 50% by weight of the therapeutic compound. Thus, a formulation according to the present invention will contain a therapeutic agent of which more than about 50% by weight is complexed with an SAE-CD. In various embodiments, preferably greater than 60% by weight, more preferably greater than 75% by weight, even more preferably greater than 90% by weight, and most preferably greater than 95% by weight of the therapeutic agent will remain complexed with an SAE-CD while in the pharmaceutical formulation. The actual percent of drug that is complexed will vary according to the complexation equilibrium constant characterizing the complexation of a specific SAE- CD to a specific drug. […] . In this case the amount complexed is only 75%. Generally, the greater the percentage of drug that is complexed, the more effectively the SAE-CD will reduce pain on injection. […]

Structure (SMILES): CCOC(=O)c1cncn1[C@H](C)c1ccccc1 [Etomidate, (R)-(+)ethyl 1-(1-phenylethyl)-1H-imidazole-5-carboxylate]
- solubility (0.025 M phosphate buffer at pH 7.0): ~450 µg/mL (≈ 1840 µM)
- solubility (25mM phosphate buffer, pH 7.4): 450 µg/mL (≈ 1840 µM)
